Laboratory results as given in patent US20220211710A1, “COMPOSITIONS AND METHODS FOR TREATING CANCER WITH NUCLEOSIDE-METABOLISM MODULATORS” (The Regents of the University of California, priority 2019, published 2022).

Experiments:
Assay type in all cases: cell-based, human
[1] = system: SUIT2 SAMHD1 KO cells; assay: Immunoblot analysis, SUIT2 SAMHD1 knockout
Procedure: (§1) PBS-washed cell pellets were re-suspended in cold RIPA buffer supplemented with protease and phosphatase inhibitors. Protein lysates were normalized using BCA assay, diluted using RIPA and 4× laemmli loading dye, resolved on 4-12% Bis-Tris gels and electro-transferred to nitrocellulose membranes. After blocking with 5% nonfat milk in TBS+0.1% Tween-20 (TBS-T), membranes were incubated overnight in primary antibodies diluted (per manufacturers instructions) in 5% BSA in TBS-T. Membranes were washed with TBST-T and incubated with HRP-linked secondary antibodies prepared at a 1:2500 dilution in 5% nonfat dry milk in TBS-T. HRP was activated by incubating membranes with a mixture of SuperSignal Pico and SuperSignal Femto ECL reagents (100:1 ratio). Exposure of autoradiography film was used for detection.

[2] = system: SUIT2 SAMHD1 KO cells; assay: Crystal violet proliferation analysis, SUIT2 SAMHD1 knockout; conditions: 7 d
Procedure: (§2) For crystal violet staining, cells were plated in 6-well cell culture plates at 1×10^4 cells/well and treated as described. Following treatment cells were fixed by incubating in 4% PFA in PBS for 15 m at room temperature. Plates were subsequently washed with PBS and stained with 0.1% crystal violet in H2O for 15 m at room temperature.

[3] = system: NALM6 cells; assay: Cell Titer Glo proliferation, NALM6; conditions: NALM6 (SAMHD1-proficient), 72 h, +1 μM dG
Procedure: (§3) For CellTiter-Glo analysis cells were plated at 1×10^3 cells/well in 50 μl/well in white opaque 384-well plates and treated as described. Following incubation 50 μl of CellTiter-Glo reagent (Diluted 1:5 in dH2O) was added to each well, plates incubated at room temperature for 5 m and luminescence was measured using a BioTek microplate luminescence reader. Proliferation rate normalized growth inhibition was calculated using the previously described GR metric (Hafner et al., 2016).

[4] = system: JURKAT cells; assay: Cell Titer Glo proliferation, JURKAT
Procedure: as §3

[5] = system: CCRF-CEM SAMHD1 over-expressing cells; assay: Cell Titer Glo proliferation, CCRF-CEM SAMHD1 over-expressing
Procedure: as §3

[6] = system: SUIT2 SAMHD1 KO cells; assay: Cell Titer Glo proliferation, SUIT2 SAMHD1 knockout; conditions: 72 h
Procedure: as §3

[7] = system: CCRF-CEM cells; assay: Cell Titer Glo proliferation, CCRF-CEM (YFP control)
Procedure: as §3

[8] = system: HCC827 cells; assay: Cell Titer Glo proliferation, HCC827; conditions: for IC50: Homo sapiens, HCC827, 72 h, +10 μM dG
Procedure: as §3

[9] = system: SUIT2 cells; assay: Cell Titer Glo proliferation, SUIT2 wild-type; conditions: SUIT2 (SAMHD1-proficient), 72 h, +5 μM dG
Procedure: as §3

[10] = system: SAMHD1-deficient primary melanoma cell lines; assay: Crystal violet proliferation analysis, SAMHD1-deficient primary melanoma models; conditions: 1 μM PNPi + 10 μM dG, 7 d
Procedure: as §2

[11] = system: MOLT-4 cells; assay: Cell Titer Glo proliferation, MOLT-4; conditions: MOLT-4, 5 μM dG + 1 μM BCX-1777, 72 h
Procedure: as §3

[12] = system: NALM6 cells; assay: Immunoblot analysis, NALM6; conditions: NALM6, 5 μM dG + 1 μM BCX-1777, 24 h
Procedure: as §1

[13] = system: T-ALL cell lines; assay: Propidium iodide cell cycle analysis, T-ALL models; conditions: T-ALL models only, 5 μM dG + 1 μM BCX-1777, 24 h
Procedure: (§4) Treated cells were washed with PBS and suspended in propidium iodide cell cycle staining solution (100 μg/ml propidium iodide; 20 μg/ml Ribonuclease A). 10,000 events were collected per sample. All flow cytometry data were acquired on five-laser BD LSRII, and analyzed using FlowJo software (Tree Star).

[14] = system: B-ALL cell lines; assay: Cell Titer Glo proliferation, B-ALL models; conditions: 5 μM dG + 1 μM BCX-1777, 72 h
Procedure: as §3

[15] = system: CCRF-CEM SAMHD1 over-expressing cells; assay: Propidium iodide cell cycle analysis, CCRF-CEM SAMHD1 over-expressing; conditions: CCRF-CEM expressing SAMHD1, 5 μM dG + 1 μM BCX-1777, 24 h
Procedure: as §4

[16] = system: SUIT2 cells; assay: Immunoblot analysis, SUIT2 wild-type; conditions: SUIT2 parental, 5 μM dG + 1 μM forodesine, 24 h
Procedure: as §1

[17] = system: CCRF-CEM CDA over expressing cells; assay: Cell Titer Glo proliferation, CCRF-CEM CDA over-expressing; conditions: CCRF-CEM overexpressing CDA, 10 μM dG + 1 μM BCX-1777 + dC, 72 h
Procedure: as §3

[18] = system: CCRF-CEM cells; assay: Immunoblot analysis, CCRF-CEM; conditions: 5 μM dG + 1 μM BCX-1777, 24 h
Procedure: as §1

[19] = system: HCC827 cells; assay: Crystal violet proliferation analysis, HCC827; conditions: HCC827, 5 μM dG + 1 μM PNPi, 7 d
Procedure: as §2

[20] = system: SAMHD1-deficient primary melanoma cell lines; assay: Propidium iodide cell cycle analysis, SAMHD1-deficient primary melanoma models; conditions: only SAMHD1-deficient melanoma models, 1 μM PNPi + 10 μM dG, 24 h
Procedure: as §4

[21] = system: HCC827 cells; assay: Propidium iodide cell cycle analysis, HCC827; conditions: HCC827, 5 μM dG + 1 μM BCX-1777, 24 h
Procedure: as §4

`Cc1cn([C@H]2C[C@H](O)[C@@H](CO)O2)c(=O)[nH]c1=O` [thymidine] was tested, and the “induction of pCHEK1S345 and pH2A.XS139” value ([1]; SUIT2 SAMHD1 KO vs WT, 100 μM dT, 24 h) was “enhanced”.

(R)-DI-82 [dCK inhibitor] was tested, and the “effect of dCK inhibitor on PNPi anti-proliferative effect” value ([2]; SUIT2 SAMHD1 knockout, 5 μM dG + 1 μM PNPi + 1 μM dCKi) was “completely blocked” and the “effect of dCK inhibitor on PNPi-induced DNA damage” value ([1]; SUIT2 SAMHD1 knockout, 5 μM dG + 1 μM forodesine + 1 μM (R)-DI-82, 24 h) was “completely prevented”.

In the case of `O=c1[nH]cnc2c(CN3C[C@H](CO)[C@@H](O)C3)c[nH]c12` [ulodesine], the “proliferation (ulodesine)” value [3] is reported as “not exhibiting any activity”, the “proliferation (ulodesine)” value ([4]; JURKAT (SAMHD1 deficient), 72 h, +1 μM dG) is reported as “selectively impaired the proliferation” and the “proliferation (ulodesine)” value ([5]; CCRF-CEM overexpressing SAMHD1, 72 h, +1 μM dG) is reported as “resistance”. For the same molecule, the “proliferation (ulodesine)” value ([6]; SUIT2 CRISPR/Cas9 SAMHD1 knockout, +5 μM dG) was “sensitive”, the “proliferation (ulodesine)” value ([7]; CCRF-CEM (SAMHD1 deficient), 72 h, +1 μM dG) was “selectively impaired the proliferation” and the “proliferation (ulodesine)” value ([8]; HCC827 (SAMHD1 deficient), 72 h, +5 μM dG) was “selectively impaired the proliferation”. For the same molecule, the IC50 [8] was 21 nM and the “proliferation (ulodesine)” value [9] was “not exhibiting any activity”.

For `NC(=S)N/N=C/c1ncccc1N` [3-AP], the “selectivity for SAMHD1 KO over WT cells” value ([6]; SUIT2 SAMHD1 KO vs WT) was “did not extend”.

`O=c1[nH]cnc2c([C@@H]3N[C@H](CO)[C@@H](O)[C@H]3O)c[nH]c12` [Forodesine] was tested, and the “proliferation, crystal violet” value ([2]; only SUIT2 SAMHD1 knockout cells, 5 μM dG + 1 μM PNPi) was “could be prevented”, the “proliferation, crystal violet” value [10] was “selectively inhibited proliferation” and the “anti-proliferative effect of the combination with dG” value (from here on “anti-proliferative effect … with dG”) [11] was “eradicated”. The “anti-proliferative effect … with dG” value ([4]; JURKAT, 5 μM dG + 1 μM BCX-1777, 72 h) was “eradicated”, the “DNA damage and apoptosis” value [12] was “not in NALM6 cells” and the “anti-proliferative effect of PNPi” value ([5]; CCRF-CEM expressing SAMHD1, 5 μM dG + 1 μM BCX-1777, 72 h) was “completely resistant”. For the same molecule, the “percentage of sub-G1 cells (marker for cell death)” value [13] was “increase in the percentage of sub-G1 cells”, the “anti-proliferative effect … with dG” value [14] was “unaffected” and the “cytotoxic effect of PNPi” value [15] was “completely resistant”. The “proliferation with dC supplementation” value ([7]; CCRF-CEM YFP, 10 μM dG + 1 μM BCX-1777 + 1 μM dC, 72 h) was 60 % of control, the proliferation ([7]; CCRF-CEM YFP, 10 μM dG + 1 μM BCX-1777, 72 h) was 1 % of control and the “anti-proliferative effect … with dG” value ([7]; CCRF-CEM, 5 μM dG + 1 μM BCX-1777, 72 h) was “eradicated”. For the same molecule, the “response to PNPi (DNA damage)” value [16] was “completely resistant”, the “DNA damage in response to PNPi” value ([1]; SUIT2 SAMHD1 knockout, 5 μM dG + 1 μM forodesine, 24 h) was “exhibited DNA damage” and the “dC rescue of the anti-proliferative effect of PNPi” value [17] was “prevented this rescue”. The “DNA damage (H2AXS139 phosphorylation)” value [18] was “induced DNA damage”, the “apoptosis (cleaved caspase 3 accumulation)” value [18] was “apoptosis” and the “proliferation, crystal violet” value [19] was “proliferation inhibition”. The cell cycle [20] was “induced cell cycle arrest”, the IC50 [8] was 71 nM and the cell cycle [21] was “induced cell cycle arrest”.
